Results published in patent publication US6207399A, “Methods of determining endogenous thrombin potential (ETP) and thrombin substrates for use in said methods” (Hemker; Hendrik Coenraad, priority 1995, dated 2001).

How the values were obtained:
[1] = biological target: T1, euglobulin thrombin (Homo sapiens, UniProt P00734); experiment: Decay constants of thrombin in plasma; type: biochemical; settings: [S] 25 mM in plasma
T1 construct: The euglobulin thrombin fraction was prepared from defibrinated human plasma; from tissue; host or cells: defibrinated human plasma (euglobulin fraction, acid precipitation, method of Josso and Prou-Wartelle)
Method: (§1) To this mixture was added 10 μL of a thrombin preparation to achieve a final concentration of 100 nM. At regular time intervals (5-10 s) 10 μL samples were subsampled into 490 μL buffer B which contained 200 μM of S2238 to determine thrombin activity. After 2 min the reaction was stopped by adding 300 μL 1M citric acid. The moment of sampling and stopping were recorded on a personal computer with pushbutton-equipped pipettes. The optical density was then read at 405 nm and the obtained amidolytic activities were used to calculate the decay constants. The obtained decay constant is the sum of the decay constants of the reaction of thrombin with antithrombin III (k1) and α2 -macroglobulin (k2).
as §1, with “Decay constants of thrombin in plasma: To 120 μL defibrinated plasma was added: 50 μL of buffer A which contained the substances to be tested. To” for “To”, “was” for “was then”

[2] = tested on: thrombin generation in tissue factor triggered plasma; experiment: Manual determination of thrombin generation in plasma (subsampling method) and calculated prothrombinase activity; type: biochemical, human
Method: Manual determination of thrombin generation in plasma: Extrinsic pathway: To 480 μL defibrinated plasma were added: 172 μL buffer A which contains the substrate at concentrations between 0 to 2000 μM and 20 μL of a 54 μM phospholipid solution (final concentration: 1.5 μM). After incubation of 4 min at 37° C., 24 μL tissue factor (undiluted) was added. Thrombin formation started at zero time by adding 24 μL of a 0.5 M CaCl2 solution (final concentration: 16.67 mM). At regular time intervals of 12 s samples of 10 μL were subsampled as described above. From the amidolytic activities thus obtained, the thrombin generation curve can be drawn. […] Intrinsic pathway: To 480 μL defibrinated plasma were added: 168 μL buffer A which contains the substrate at concentrations between 0 to 1000 μM and 48 μL Actin FS (undiluted). This mixture was intensively mixed and incubated for 4 min at 37° C. Thrombin generation was started at zero time by adding 24 μL of a 0.5 M CaCl2 solution (final concentration: 16.67 mM).
Influence of the substrate on the prothrombinase-complex: With the obtained decay constants and from the curves obtained by the subsampling method we calculated the course of prothrombin conversion and the course of prothrombinase concentration.
Manual determination of thrombin generation in plasma: Extrinsic pathway: To 480 μL defibrinated plasma were added: 172 μL buffer A which contained the substrate at concentrations between 0 to 2000 μM and 20 μL of a 54 μM phospholipid solution (final concentration: 1.5 μM). After incubation for 4 min at 37° C., 24 μL tissue factor (undiluted) was added. Thrombin formation started at zero time by adding 24 μL of a 0.5 M CaCl2 solution (final concentration: 16.67 mM). At regular time intervals of 12 s samples of 10 μL were subsampled as described above. From the amidolytic activities thus obtained, the thrombin generation curve can be drawn.
Influence of the substrate on the prothrombinase-compzex: With the obtained decay constants and from the curves obtained by the subsampling method we calculated the course of prothrombin conversion and the course of prothrombinase concentration.

[3] = tested on: thrombin formation in plasma; experiment: Continuous registration of the thrombin generation curve (continuous assay of ETP); type: biochemical, human; settings: 25 mM hydroxylamine
Method: Continuous registration of the thrombin generation curve: Extrinsic pathway: In a polystyrene microcuvette were added: 400 μL defibrinated plasma, 20 μL of a 45 μM phospholipid solution (final concentration: 1.5 μM), 140 μL of buffer A which contains the substrate at the desired final concentration (100-2000 μM). After 4 min of incubation at 37° C., 20 μL tissue factor (undiluted) was added. Thrombin generation was started by adding 20 μL of a 0.5 M CaCl2 solution (final concentration: 16.67 mM); during the measurement the temperature was kept at 37° C. The optical density was monitored at 405 nm. From the obtained optical density curve, the first derivative was calculated. […] The optical density was measured at 37° C. at 405 nm during 20 min.
Continuous registration of the thrombin generation curve: Extrinsic pathway: In a polystyrene microcuvette were added: 400 μL defibrinated plasma, 20 μL of a 45 μM phospholipid solution (final concentration: 1.5 μM) and 140 μL of buffer A which contains the substrate at the desired final concentration (500 μM). […] The optical density was monitored at 405 nm. From the obtained optical density curve, the first derivative was calculated giving the enzyme concentration during the measurement. […] The optical density was measured at 37° C. at 405 nm during 20 min. […] The optical density was measured at 37° C. at 405 nm during 25 min.

NO [hydroxylamine, reference compound]
(k1,corr) = k1,corr /1.856 [1]: 0.585 min⁻¹ | k1,corr : k1 after correcting for k2,M and 0.170 [1]: 1.085 min⁻¹ | k1 : AT-III dependent decay of thrombin [1]: 1.253 min⁻¹ | k2 : α2 M dependent decay of thrombin [1]: 0.059 min⁻¹ | koverall [1]: 1.312 min⁻¹ | t1/2 [1]: 31.70 s | k2,M : k2 determined by the subsampling method ([2]; [S] 25 mM in plasma): 0.057 min⁻¹ | influence on the prothrombinase complex / coagulation cascade ([2]; calculated from decay constants and manual thrombin generation curves): did not influence the coagulation cascade | AA: amidolytic activity (maximum) ([2]; hydroxylamine 25 mM): 383.88 mOD/min | PT: prothrombinase concentration (maximum) ([2]; hydroxylamine 25 mM): 1227 mOD/min | T: thrombin concentration (maximum) ([2]; hydroxylamine 25 mM): 378.03 mOD/min | t: time point at which maximum of amidolytic activity is achieved ([2]; hydroxylamine 25 mM): 72 s | t: time point at which maximum of prothrombinase concentration is achieved ([2]; hydroxylamine 25 mM): 36 s | t: time point at which maximum of thrombin concentration is achieved ([2]; hydroxylamine 25 mM): 72 s | residual amidolytic activity of the α2 M-thrombin complex [3]: substantially reduced
